In PubChem BioAssay (NCI):
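A five-concentration, 48-hour dose response in 96-well plates underlies each endpoint, interpolated linearly between surrounding concentrations. At the TGI there is no net growth.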 Where a SMILES comes first, the peptide text is derived from it. [ ]: non-standard residue; d: D form. Ac5c = NC1(C(=O)O)CCCC1

Columns and labels:
Assay in all cases: NCI tumour cell line growth inhibition, 48 h
786-0 renal = test system: 786-0 renal
A498 renal = test system: A498 renal
A549 NSCLC = test system: A549 NSCLC
ACHN renal = test system: ACHN renal
BT-549 breast = test system: BT-549 breast
CAKI-1 renal = test system: CAKI-1 renal
CCRF-CEM leukemia = test system: CCRF-CEM leukemia
COLO 205 colon = test system: COLO 205 colon
DU-145 prostate = test system: DU-145 prostate
EKVX NSCLC = test system: EKVX NSCLC
HCC-2998 colon = test system: HCC-2998 colon
HCT-116 colon = test system: HCT-116 colon
HCT-15 colon = test system: HCT-15 colon
HOP-62 NSCLC = test system: HOP-62 NSCLC
HOP-92 NSCLC = test system: HOP-92 NSCLC
HS 578T breast = test system: HS 578T breast
HT29 colon = test system: HT29 colon
IGROV1 ovarian = test system: IGROV1 ovarian
K-562 leukemia = test system: K-562 leukemia
KM12 colon = test system: KM12 colon
M14 melanoma = test system: M14 melanoma
MALME-3M melanoma = test system: MALME-3M melanoma
MCF7 breast = test system: MCF7 breast
MDA-MB-231 breast = test system: MDA-MB-231 breast
MDA-MB-435 = test system: MDA-MB-435
MDA-N = test system: MDA-N
MOLT-4 leukemia = test system: MOLT-4 leukemia
NCI-H226 lung = test system: NCI-H226 lung
NCI-H23 lung = test system: NCI-H23 lung
NCI-H460 lung = test system: NCI-H460 lung
NCI-H522 lung = test system: NCI-H522 lung
NCI/ADR-RES ovarian = test system: NCI/ADR-RES ovarian
OVCAR-3 ovarian = test system: OVCAR-3 ovarian
OVCAR-4 ovarian = test system: OVCAR-4 ovarian
OVCAR-5 ovarian = test system: OVCAR-5 ovarian
OVCAR-8 ovarian = test system: OVCAR-8 ovarian
PC-3 prostate = test system: PC-3 prostate
RXF 393 renal = test system: RXF 393 renal
SF-268 CNS = test system: SF-268 CNS
SF-295 CNS = test system: SF-295 CNS
SK-MEL-2 melanoma = test system: SK-MEL-2 melanoma
SK-MEL-28 melanoma = test system: SK-MEL-28 melanoma
SK-MEL-5 melanoma = test system: SK-MEL-5 melanoma
SK-OV-3 ovarian = test system: SK-OV-3 ovarian
SN12C renal = test system: SN12C renal
SNB-19 CNS = test system: SNB-19 CNS
SNB-75 CNS = test system: SNB-75 CNS
SR leukemia = test system: SR leukemia
SW-620 colon = test system: SW-620 colon
T-47D breast = test system: T-47D breast
TK-10 renal = test system: TK-10 renal
U251 CNS = test system: U251 CNS
UACC-257 melanoma = test system: UACC-257 melanoma
UACC-62 melanoma = test system: UACC-62 melanoma
UO-31 renal = test system: UO-31 renal
HL-60(TB) leukemia = test system: HL-60(TB) leukemia
LOX IMVI melanoma = test system: LOX IMVI melanoma
RPMI-8226 leukemia = test system: RPMI-8226 leukemia
SF-539 CNS = test system: SF-539 CNS

Measured: TGI

CCCCC/C=C1\CC(CO)(COC(=O)CC(C(C)C)C(C)C)OC1=O (centres undefined)
38.9 µM: HCT-15 colon
28.3 µM: KM12 colon
36.2 µM: SK-MEL-28 melanoma
28.7 µM: ACHN renal
27.2 µM: NCI-H226 lung
28.8 µM: A549 NSCLC
32.4 µM: M14 melanoma
35.5 µM: SF-268 CNS
40.1 µM: HT29 colon
38.7 µM: SK-OV-3 ovarian
33.9 µM: RXF 393 renal
27.5 µM: PC-3 prostate
39.3 µM: MCF7 breast
31 µM: BT-549 breast
54.1 µM: MOLT-4 leukemia
20 µM: SF-295 CNS
27.7 µM: OVCAR-5 ovarian
44.2 µM: K-562 leukemia
55.1 µM: T-47D breast
24.3 µM: CAKI-1 renal
33.7 µM: A498 renal
32.3 µM: OVCAR-3 ovarian
20.9 µM: HOP-92 NSCLC
39 µM: UACC-62 melanoma
36.8 µM: TK-10 renal
26.8 µM: SNB-75 CNS
31.8 µM: IGROV1 ovarian | SN12C renal
32.6 µM: HCC-2998 colon
32.1 µM: OVCAR-8 ovarian
33.6 µM: NCI-H522 lung
49 µM: SK-MEL-2 melanoma
44.4 µM: HCT-116 colon
30.3 µM: 786-0 renal | EKVX NSCLC | SNB-19 CNS
40.2 µM: MDA-MB-231 breast
15.3 µM: COLO 205 colon
47 µM: NCI/ADR-RES ovarian
21.1 µM: HOP-62 NSCLC
22 µM: MDA-MB-435
26.4 µM: MDA-N
> 100 µM: CCRF-CEM leukemia | NCI-H460 lung | SR leukemia | SW-620 colon
36.4 µM: NCI-H23 lung
28.6 µM: UO-31 renal
45.6 µM: UACC-257 melanoma
31.9 µM: MALME-3M melanoma
22.9 µM: SK-MEL-5 melanoma
18.3 µM: HS 578T breast
31.6 µM: U251 CNS
44.9 µM: DU-145 prostate
46.5 µM: OVCAR-4 ovarian

O=C(Cc1ccc(OCc2cccc(Cl)c2)cc1)NO
76.5 µM: SN12C renal
50.4 µM: UO-31 renal
46.2 µM: T-47D breast
65.4 µM: NCI-H226 lung
43.5 µM: 786-0 renal
68.2 µM: CAKI-1 renal
44.9 µM: HL-60(TB) leukemia
55.4 µM: UACC-62 melanoma
50.8 µM: RPMI-8226 leukemia
86 µM: ACHN renal
82.7 µM: OVCAR-4 ovarian
42.5 µM: CCRF-CEM leukemia
39.3 µM: NCI/ADR-RES ovarian
34.5 µM: OVCAR-8 ovarian
27 µM: A498 renal
66.2 µM: DU-145 prostate
> 100 µM: A549 NSCLC | BT-549 breast | COLO 205 colon | EKVX NSCLC | HCC-2998 colon | HCT-116 colon | HCT-15 colon | HOP-62 NSCLC | HOP-92 NSCLC | HS 578T breast | HT29 colon | IGROV1 ovarian | K-562 leukemia | KM12 colon | M14 melanoma | MCF7 breast | MDA-MB-231 breast | MDA-MB-435 | MDA-N | NCI-H23 lung | NCI-H460 lung | NCI-H522 lung | OVCAR-3 ovarian | OVCAR-5 ovarian | PC-3 prostate | RXF 393 renal | SF-268 CNS | SF-295 CNS | SF-539 CNS | SK-MEL-2 melanoma | SK-MEL-28 melanoma | SK-MEL-5 melanoma | SK-OV-3 ovarian | SNB-19 CNS | SNB-75 CNS | SW-620 colon | TK-10 renal | U251 CNS | UACC-257 melanoma
49 µM: LOX IMVI melanoma
33.1 µM: MOLT-4 leukemia
32.5 µM: SR leukemia

O=C(O)CCc1nc2c(n1Cc1ccccc1)C(=O)c1ccccc1C2=O
85.9 µM: OVCAR-3 ovarian
66.4 µM: HOP-92 NSCLC
50.7 µM: M14 melanoma
72.1 µM: NCI-H522 lung
35.8 µM: MDA-MB-435
43.5 µM: SK-MEL-5 melanoma
78.1 µM: SK-MEL-2 melanoma
52.8 µM: MDA-N
> 100 µM: 786-0 renal | A498 renal | A549 NSCLC | ACHN renal | BT-549 breast | CAKI-1 renal | CCRF-CEM leukemia | COLO 205 colon | DU-145 prostate | EKVX NSCLC | HCC-2998 colon | HCT-116 colon | HCT-15 colon | HL-60(TB) leukemia | HOP-62 NSCLC | HS 578T breast | HT29 colon | IGROV1 ovarian | K-562 leukemia | KM12 colon | LOX IMVI melanoma | MCF7 breast | MDA-MB-231 breast | MOLT-4 leukemia | NCI-H226 lung | NCI-H23 lung | NCI-H460 lung | NCI/ADR-RES ovarian | OVCAR-4 ovarian | OVCAR-5 ovarian | OVCAR-8 ovarian | PC-3 prostate | RPMI-8226 leukemia | RXF 393 renal | SF-268 CNS | SF-295 CNS | SF-539 CNS | SK-MEL-28 melanoma | SK-OV-3 ovarian | SN12C renal | SNB-19 CNS | SNB-75 CNS | SR leukemia | SW-620 colon | T-47D breast | TK-10 renal | U251 CNS | UACC-257 melanoma | UACC-62 melanoma | UO-31 renal

O=C1C=CC(=O)N1n1c(Cc2ccccc2)n[nH]c1=O
> 100 µM: 786-0 renal | A498 renal | A549 NSCLC | ACHN renal | BT-549 breast | CAKI-1 renal | CCRF-CEM leukemia | COLO 205 colon | DU-145 prostate | EKVX NSCLC | HCC-2998 colon | HCT-116 colon | HCT-15 colon | HL-60(TB) leukemia | HOP-62 NSCLC | HOP-92 NSCLC | HS 578T breast | HT29 colon | IGROV1 ovarian | K-562 leukemia | KM12 colon | LOX IMVI melanoma | MALME-3M melanoma | MCF7 breast | MDA-MB-231 breast | MDA-MB-435 | MDA-N | MOLT-4 leukemia | NCI-H226 lung | NCI-H23 lung | NCI-H460 lung | NCI-H522 lung | NCI/ADR-RES ovarian | OVCAR-3 ovarian | OVCAR-4 ovarian | OVCAR-5 ovarian | OVCAR-8 ovarian | PC-3 prostate | RPMI-8226 leukemia | RXF 393 renal | SF-268 CNS | SF-295 CNS | SF-539 CNS | SK-MEL-2 melanoma | SK-MEL-28 melanoma | SK-MEL-5 melanoma | SK-OV-3 ovarian | SN12C renal | SNB-19 CNS | SR leukemia | SW-620 colon | T-47D breast | TK-10 renal | U251 CNS | UACC-257 melanoma | UACC-62 melanoma | UO-31 renal

NCC(=O)NC1(C(=O)O)CCCC1 (H-Gly-[Ac5c]-OH)
> 100 µM: 786-0 renal | A498 renal | A549 NSCLC | ACHN renal | BT-549 breast | CAKI-1 renal | COLO 205 colon | DU-145 prostate | EKVX NSCLC | HCC-2998 colon | HCT-116 colon | HCT-15 colon | HOP-62 NSCLC | HOP-92 NSCLC | HS 578T breast | HT29 colon | IGROV1 ovarian | K-562 leukemia | KM12 colon | LOX IMVI melanoma | M14 melanoma | MALME-3M melanoma | MCF7 breast | MDA-MB-231 breast | MDA-MB-435 | MDA-N | MOLT-4 leukemia | NCI-H23 lung | NCI-H460 lung | NCI-H522 lung | NCI/ADR-RES ovarian | OVCAR-3 ovarian | OVCAR-4 ovarian | OVCAR-5 ovarian | OVCAR-8 ovarian | PC-3 prostate | RPMI-8226 leukemia | RXF 393 renal | SF-268 CNS | SF-295 CNS | SF-539 CNS | SK-MEL-2 melanoma | SK-MEL-28 melanoma | SK-MEL-5 melanoma | SK-OV-3 ovarian | SN12C renal | SNB-19 CNS | SNB-75 CNS | SR leukemia | SW-620 colon | T-47D breast | TK-10 renal | U251 CNS | UACC-257 melanoma | UACC-62 melanoma | UO-31 renal
